Assay results: patent US10555960B2, “Use of an aminoglycoside for nonsense mutation suppression and the treatment of disease” (PTC Therapeutics, Inc., priority 2015, dated 2020)
Counter-ions that a name gives are not always drawn. Like-named read-outs stand apart in the source and are kept apart here.

Tested on: premature stop codon
Experiment: Premature stop codon readthrough (nonsense suppression), full length protein production by enzyme-linked immunosorbent assay
Assay type: cell-based
Description: Table 1 also provides the median maximum fold increase of the full length protein production over DMSO-treated samples as also determined by enzyme-linked immunosorbent assay within the concentration range tested (up to 1 mM).

[1] = median, enzyme-linked immunosorbent assay, concentration range tested up to 1 mM
[2] = median, enzyme-linked immunosorbent assay, within concentration range tested (up to 1 mM)

| Compound | EC2X (median concentration that doubles the intensity of the nonsense suppression) [1] [µM] | Max Fold over DMSO (median maximum fold increase of full length protein production over DMSO-treated samples) [2] | EC2X (median concentration that doubles the intensity of the nonsense suppression) [µM] | Max Fold over DMSO (median maximum fold increase of full length protein production over DMSO-treated samples) |
| --- | --- | --- | --- | --- |
| CN[C@@H]1[C@@H](O)[C@@H](O[C@@H]2[C@@H](O)[C@H](O[C@H]3O[C@H](CO)[C@@H](O)[C@H](O)[C@H]3N)[C@@H](N)C[C@H]2N)OC[C@]1(C)O [Compound 1 sulfate, (2R,3S,4R,5R,6S)-5-amino-6-(((1R,2S,3S,4R,6S)-4,6-diamino-3-(((2R,3R,4R,5R)-3,5-dihydroxy-5-methyl-4-(methylamino)tetrahydro-2H-pyran-2-yl)oxy)-2-hydroxycyclohexyl)oxy)-2-(hydroxymethyl)tetrahydro-2H-pyran-3,4-diol] | 19 | 47 |  |  |
| CN[C@@H]1[C@@H](O)[C@@H](O[C@@H]2[C@@H](O)[C@H](O[C@H]3O[C@H]([C@H](C)N)CC[C@H]3N)[C@@H](N)C[C@H]2N)OC[C@]1(C)O.O=S(=O)(O)O [Gentamicin C2a sulfate] | 260 | 3.1 |  |  |
| Gentamicin C1a sulfate |  |  | 135 | 2.6 |

The next lines start with results.

| EC2X (median concentration that doubles the intensity of the nonsense suppression) [1] [µM] | Max Fold over DMSO (median maximum fold increase of full length protein production over DMSO-treated samples) [2] | Compound | EC2X (median concentration that doubles the intensity of the nonsense suppression) [µM] | Max Fold over DMSO (median maximum fold increase of full length protein production over DMSO-treated samples) |
| --- | --- | --- | --- | --- |
| 566 | 4.1 | CN[C@@H]1[C@@H](O)[C@@H](O[C@@H]2[C@@H](O)[C@H](O[C@H]3O[C@H](CO)[C@@H](O)[C@H](O)[C@H]3N)[C@@H](N)C[C@H]2N)OC[C@H]1O [Gentamicin A sulfate] |  |  |
| 100 | 3.7 | CN[C@@H]1[C@@H](O)[C@@H](O[C@@H]2[C@@H](O)[C@H](O[C@H]3O[C@H]([C@@H](C)NC)CC[C@H]3N)[C@@H](N)C[C@H]2N)OC[C@]1(C)O.O=S(=O)(O)O [Gentamicin C1 sulfate] |  |  |
| 95 | 5.5 | CN[C@@H]1[C@@H](O)[C@@H](O[C@@H]2[C@@H](O)[C@H](O[C@H]3O[C@H]([C@@H](C)N)CC[C@H]3N)[C@@H](N)C[C@H]2N)OC[C@]1(C)O [Gentamicin C2 sulfate] |  |  |
